{"source": "patent US4916146A", "about": "“Amino acid imide derivatives, usage thereof, and medicinal composition containing the same” (Zeria Pharmaceutical Co., Ltd., priority 1987, dated 1990)", "key": {"[1]": {"target": "prolyl endopeptidase from Flavobacterium (Elizabethkingia meningoseptica, UniProt P27028)", "sequence (P27028 21-705)": "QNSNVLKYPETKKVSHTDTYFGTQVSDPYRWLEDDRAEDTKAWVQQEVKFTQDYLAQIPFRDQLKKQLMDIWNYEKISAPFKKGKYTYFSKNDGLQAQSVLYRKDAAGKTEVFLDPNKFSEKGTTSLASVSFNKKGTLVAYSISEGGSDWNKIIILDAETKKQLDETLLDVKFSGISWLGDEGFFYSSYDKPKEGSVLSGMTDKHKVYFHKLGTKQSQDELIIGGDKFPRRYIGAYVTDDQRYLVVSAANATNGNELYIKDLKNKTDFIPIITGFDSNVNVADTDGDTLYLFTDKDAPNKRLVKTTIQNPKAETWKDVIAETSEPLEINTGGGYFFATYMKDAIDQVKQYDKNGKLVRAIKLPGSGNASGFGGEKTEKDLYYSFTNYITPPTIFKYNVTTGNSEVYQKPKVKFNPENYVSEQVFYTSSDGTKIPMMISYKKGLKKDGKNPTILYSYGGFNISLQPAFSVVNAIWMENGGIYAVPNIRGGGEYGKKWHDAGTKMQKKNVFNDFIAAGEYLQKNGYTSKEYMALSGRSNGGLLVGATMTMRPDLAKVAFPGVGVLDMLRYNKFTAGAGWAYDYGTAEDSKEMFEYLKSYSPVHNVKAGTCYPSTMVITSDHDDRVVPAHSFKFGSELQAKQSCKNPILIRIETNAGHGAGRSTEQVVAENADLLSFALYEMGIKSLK", "experiment": "biochemical", "protocol": "Inhibitory activity of the compound of formula (I) against prolyl endopeptidase from Flavobacterium was measured according to the method of Yoshimoto and Tsuru [Arg.\nProlyl endopeptidase was dissolved with 20 mM Tris-HCl buffer (pH 7.4) at a concentration of 0.4 unit/ml. This solution (100 μl) was added to 890 μl of the same buffer, and the solution thus obtained was left at room temperature for 10 minutes. (This solution is herein referred to as an \"Enzyme solution\"). This buffer (990 μl) was used as a \"Correction solution\".\nTest compound dissolved with dimethylsulfoxide (10 μl) was added to the Enzyme solution. The solution was stirred and allowed to stand at room temperature for 10 minutes. Separately, 10 μl of dimethylsulfoxide was added to Enzyme solution and was processed in the same manner. The solution thus obtained was served as a \"Control solution\". The same procedure was carried out on the Correction solution.\nEnzyme activities were determined by subtracting the blank value, i.e., the absorbance measured on the Correction solution, from the absorbance of each of the sample solutions or of the Control solution."}, "[2]": {"system": "ICR male mice", "experiment": "Anti-hypoxic activity (survival time under 4% O2 + 96% N2)", "assay_type": "in vivo", "conditions": "30 minutes before mixed gas, control = 100", "protocol": "Groups of ICR male mice, age 4 to 5 weeks, each group consisting of 10 mice and each mouse having been fasted for 24 hours, were used for the test. Mice were placed in a transparent desiccator (diameter: 19 cm, height: 30 cm) made of synthetic resin and having 2 bulbs, one at the upper portion and the other at the lower portion, for replacing the gas therein. A mixed gas (4% O2 +96% N2) was fed from the upper bulb at a rate of 10 l/min to measure the period of time until respiratory arrest took place for each mouse. The time measured was taken as the time of survival.\nEach tested compound suspended in 5% gum arabic solution was intraperitoneally administered 30 minutes before the start of the mixed gas feeding. A group of mice to which only 5% gum arabic solution was intraperitoneally administered was used as a control.\nCompounds, not sufficiently suspended in 5% gum arabic, were dissolved with Tween 80 so that the final concentration of the detergent was 3%, followed by the addition of 5% gum arabic. The anti-hypoxic activity was determined according to the following formula: [formula]"}, "[3]": {"system": "ICR male mice", "experiment": "Anti-amnesic activity (cycloheximide-induced amnesia, step-down passive avoidance)", "assay_type": "in vivo", "conditions": "for Amnesic Mice (%): latency shorter than 150 seconds at 24 hours", "protocol": "Compounds of this invention were checked with respect to their abilities to prevent the inhibition of long-term memory fixation by cycloheximide which is an amnesia inducing compound. ICR male mice, age 6 to 7 weeks, were used for the test. The test was carried out using a step-down passive avoidance apparatus.\nOn the first day, a 5-minute training was given to each mouse which was placed on a rubber platform. Every time when the mouse stepped down on the grid floor, a 0.2 mA electric foot shock was applied until it stepped up on the platform. This motion of the mouse was repeated for 5 minutes.\nAdministration of cycloheximide and the compound of this invention was performed immediately after the training. Cycloheximide was dissolved in a saline and subcutaneously administered to the mouse. The compound of this invention, suspended in a sesame oil/Tween 80/5% gum arabic (3/1/96; by volume), was intraperitoneally administered. Aniracetam suspended in 5% gum arabic was orally administered. Twenty-four hours after the training, a retention test was performed, which consisted of placing the mouse on the platform again and measuring the latency of the mouse to step down on the grid floor. The amnesia ratio for each group of mice was determined as the percentage of amnesic mice taken latency shorter than 150 seconds.\n- wherein %A is a percentage of amnesic mice, t denotes a test compound,\nstands for cycloheximide, v stands for vehicle, and s stands for saline"}, "[4]": {"target": "T1, prolyl endopeptidase prepared from canine brains (Canis lupus familiaris, UniProt A0A8I3N6C8)", "T1 construct": "Prolyl endopeptidase was prepared from canine brains; from tissue; host or cells: canine brain", "T1 sequence (A0A8I3N6C8 1-710)": "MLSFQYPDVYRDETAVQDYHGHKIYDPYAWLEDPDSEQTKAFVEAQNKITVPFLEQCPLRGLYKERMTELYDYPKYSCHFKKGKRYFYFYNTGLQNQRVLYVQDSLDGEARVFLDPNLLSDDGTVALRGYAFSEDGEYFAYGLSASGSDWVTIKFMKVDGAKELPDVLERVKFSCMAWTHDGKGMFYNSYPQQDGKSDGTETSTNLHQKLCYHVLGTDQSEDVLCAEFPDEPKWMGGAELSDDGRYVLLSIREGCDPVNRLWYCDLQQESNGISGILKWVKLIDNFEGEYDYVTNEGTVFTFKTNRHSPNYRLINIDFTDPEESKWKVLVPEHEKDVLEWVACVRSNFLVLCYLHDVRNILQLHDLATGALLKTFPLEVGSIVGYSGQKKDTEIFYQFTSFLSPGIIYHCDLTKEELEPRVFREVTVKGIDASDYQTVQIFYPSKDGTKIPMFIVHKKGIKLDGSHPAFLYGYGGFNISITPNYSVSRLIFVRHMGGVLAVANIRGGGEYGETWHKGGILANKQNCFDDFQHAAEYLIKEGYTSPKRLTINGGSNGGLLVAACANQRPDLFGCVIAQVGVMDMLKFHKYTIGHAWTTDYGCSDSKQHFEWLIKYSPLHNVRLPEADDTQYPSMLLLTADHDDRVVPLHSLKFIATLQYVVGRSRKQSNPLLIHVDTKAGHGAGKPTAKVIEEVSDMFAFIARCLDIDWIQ", "experiment": "Inhibitory activity against prolyl endopeptidase from brain", "assay_type": "biochemical", "conditions": "substrate carbobenzoxyglycylprolyl paranitroanilide, 37° C., 10 minutes, read-out: Inhibition Potency, IC50", "protocol": "Buffer A: 20 mM Tris-HCl buffer (pH 7.0)\nBuffer B: a solution containing 0.1% gelatin, 1 mM EDTA, and 1 mM mercapto ethanol in buffer solution A\nProlyl endopeptidase was dissolved with the Buffer B at a concentration of 0.4 unit/ml. This solution (50 μl) was added to 940 μl of the Buffer A, and the solution thus obtained was left at 37° C. for 10 minutes (This solution is herein referred to as \"Enzyme solution\"). A mixed solution of 50 μl of the Buffer B and 940 μl of Buffer A was used as a \"Correction solution\".\nA test compound was dissolved with dimathylsulfoxide (10 μl) was added to the Enzyme solution. The mixture was stirred and allowed to stand at 37° C. for 10 minutes. Separately, 10 μl of dimethylsulfoxide was added to the Enzyme solution and was processed in the same manner. The solution thus obtained was served as a \"Control solution\". The same procedure was carried out on the Correction solution.\nOne hundred micoliters of 2.5 mM carbobezoxyglycylprolyl paranitroanilide, which was dissolved with 40% dioxane, was added to each of the above 3 solutions, i.e., the Enzyme solution with the test compound, Control solution, and Correction solution, and the reaction was carried out at 37° C. for 10 minutes.\nEnzyme activities were determined by subtracting the blank value, i.e., the absorbance measured on the Correction solution, from the absorbance of each of the sample solutions and of the Control solution."}, "[5]": {"system": "Fisher 344 male rats", "experiment": "Toxicity experiment, oral administration", "assay_type": "in vivo", "conditions": "period of 14 days; for Mortality: 500, 1,000, 1,500 and 2,000 mg/kg orally in propylene glycol", "text": "Groups of Fisher 344 male rats, age 6 weeks, each group consisting of 5 rats were used for the test."}, "[6]": {"system": "ICR male mice", "experiment": "Toxicity experiment, intraperitoneal administration", "assay_type": "in vivo", "conditions": "300 mg/kg intraperitoneally in 5% gum arabic, period of 7 days", "protocol": "Groups of ICR male mice, age 4 to 5 weeks, each group consisting of 10 mice were used for the test. A dose of 300 mg/kg of each compound prepared in Examples 1 and 2 hereinbelow suspended in 5% gum arabic was intraperitoneally administered to each group of mice."}, "[7]": {"conditions": "30 mg/kg po + cycloheximide 200 mg/kg sc"}, "[8]": {"conditions": "60 mg/kg po + cycloheximide 200 mg/kg sc"}, "[9]": {"conditions": "read-out: Inhibition Potency, IC50"}, "[10]": {"conditions": "1 mg/kg ip + cycloheximide 200 mg/kg sc"}, "[11]": {"conditions": "3 mg/kg ip + cycloheximide 200 mg/kg sc"}}, "note": "Like-named read-outs stand apart in the source and are kept apart here.", "data": [{"molecule": "COc1ccc(C(=O)N2CCCC2=O)cc1", "note": "[Aniracetam, reference compound]", "values": [{"measurement": "IC50", "setting": "[1]", "result": "> 1000", "unit": "µM"}, {"measurement": "Anti-hypoxic Activity (%)", "setting": "[2]; dose 100 mg/kg ip", "result": 115, "unit": "%"}, {"measurement": "Anti-hypoxic Activity (%)", "setting": "[2]; dose 300 mg/kg ip", "result": 159, "unit": "%"}, {"measurement": "Amnesia Reversal (%)", "setting": "[3]; [7]", "result": 22.8, "unit": "%"}, {"measurement": "Amnesic Mice (%)", "setting": "[3]; [7]", "result": 42.9, "unit": "%"}, {"measurement": "Amnesia Reversal (%)", "setting": "[3]; [8]", "result": 7.2, "unit": "%"}, {"measurement": "Amnesic Mice (%)", "setting": "[3]; [8]", "result": 50.0, "unit": "%"}]}, {"molecule": "CC(C)(CO)[C@@H](O)C(=O)NCCCC(=O)O", "note": "[Calcium hopantenate, reference compound]", "values": [{"measurement": "IC50", "setting": "[1]; prolyl endopeptidase from Flavobacterium, substrate carbobenzoxyglycylprolyl paranitroanilide, 37° C., 10 minutes, read-out: Inhibition Potency, IC50", "result": "> 1000", "unit": "µM"}, {"measurement": "Anti-hypoxic Activity (%)", "setting": "[2]; dose 250 mg/kg ip", "result": 135, "unit": "%"}]}, {"molecule": "O=C([C@@H]1CSCN1C(=O)CCCc1ccccc1)N1CCSC1", "note": "[Compound of Ex. 1, N-(4-phenylbutanoyl)-L-thioprolylthiazolidineimide]", "values": [{"measurement": "IC50", "setting": "[1]; [9]", "result": 0.087, "unit": "µM"}, {"measurement": "IC50", "setting": "[4]", "result": 0.017, "unit": "µM"}, {"measurement": "Mortality", "setting": "[5]", "result": "No fatal problem"}, {"measurement": "Anti-hypoxic Activity (%)", "setting": "[2]; dose 100 mg/kg ip", "result": 124, "unit": "%"}, {"measurement": "Amnesia Reversal (%)", "setting": "[3]; [10]", "result": 28.2, "unit": "%"}, {"measurement": "Amnesic Mice (%)", "setting": "[3]; [10]", "result": 52.9, "unit": "%"}, {"measurement": "Amnesia Reversal (%)", "setting": "[3]; [11]", "result": 74.8, "unit": "%"}, {"measurement": "Amnesic Mice (%)", "setting": "[3]; [11]", "result": 26.7, "unit": "%"}, {"measurement": "Mortality", "setting": "[6]", "result": "No fatal problem"}]}, {"molecule": "O=C([C@@H]1CCCN1C(=O)CCCc1ccccc1)N1CCSC1", "note": "[Compound of Ex. 2, N-(4-phenylbutanoyl)-L-prolylthiazolidineimide]", "values": [{"measurement": "IC50", "setting": "[1]; [9]", "result": 0.15, "unit": "µM"}, {"measurement": "IC50", "setting": "[4]", "result": 0.041, "unit": "µM"}, {"measurement": "Mortality", "setting": "[5]", "result": "No fatal problem"}, {"measurement": "Anti-hypoxic Activity (%)", "setting": "[2]; dose 100 mg/kg ip", "result": 160, "unit": "%"}, {"measurement": "Mortality", "setting": "[6]", "result": "No fatal problem"}]}, {"molecule": "O=C([C@@H]1CSCN1C(=O)CCCc1ccccc1)N1CCCC1", "note": "[Compound of Ex. 3, N-(4-phenylbutanoyl)-L-thioprolylpyrrolidineimide]", "values": [{"measurement": "IC50", "setting": "[4]", "result": 0.031, "unit": "µM"}, {"measurement": "Mortality", "setting": "[5]", "result": "No fatal problem"}, {"measurement": "Anti-hypoxic Activity (%)", "setting": "[2]; dose 100 mg/kg ip", "result": 169, "unit": "%"}]}, {"molecule": "O=C([C@H]1CCCN1C(=O)CCCc1ccccc1)N1CCSC1", "note": "[Compound of Ex. 4, N-(4-phenylbutanoyl)-D-prolylthiazolidineimide]", "values": [{"measurement": "Anti-hypoxic Activity (%)", "setting": "[2]; dose 100 mg/kg ip", "result": 164, "unit": "%"}]}, {"molecule": "COC1=C(OC)C(=O)C(CCCCCCCCCCO)=C(C)C1=O", "note": "[Idebenone, reference compound]", "values": [{"measurement": "Anti-hypoxic Activity (%)", "setting": "[2]; dose 100 mg/kg ip", "result": 140, "unit": "%"}]}, {"molecule": "O=C([C@@H]1CCCN1C(=O)CCCc1ccccc1)N1CCCC1", "note": "[SUAM 1221, reference compound]", "values": [{"measurement": "Rats died out of the 5 rats", "setting": "[5]; 1,500 mg/kg orally", "result": "one"}, {"measurement": "Rats died out of the 5 rats", "setting": "[5]; 2,000 mg/kg orally", "result": 2}]}]}
